# Read-outs that look alike come from different tables or passages of the source.
# What was measured:
# human TrkA = target: T1, human TrkA (Homo sapiens, UniProt P04629); test: Human TrkA inhibition assay; assay type: biochemical; details: human TrkA phosphorylation inhibition, ATP 500 μmol/L
# T1 construct: purchased Lifetechnologies PV3144
# Outline: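 Human TrkA (1 nmol/L final) preincubated 15 min with compound, then FL-peptide 27 (1.5 μmol/L) and ATP (500 μmol/L) added; 120 min at 37 °C in HEPES/MgCl2/DTT buffer. Mobility-shift measurement of phosphorylated vs non-phosphorylated substrate; IC50 by logistic regression over 3-fold dilution series.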
# hERG channel (IKr) = target: T2, hERG channel (IKr) (Homo sapiens, UniProt Q12809); test: hERG test (whole cell patch clamp, IKr); assay type: cell-based; details: CHO cells expressing hERG channel, read-out: % inhibition of tail peak current (IKr); for inhibition at 5 μmol/L: pH 7.4, 5 μmol/L of test compound; for inhibition at 30 μmol/L: pH 7.4, 30 μmol/L of test compound; for inhibition at 10 μmol/L: pH 7.4, 10 μmol/L of test compound
# T2 construct: expressed in transfected cells; host or cells: CHO cells
# T2 sequence (Q12809 whole entry): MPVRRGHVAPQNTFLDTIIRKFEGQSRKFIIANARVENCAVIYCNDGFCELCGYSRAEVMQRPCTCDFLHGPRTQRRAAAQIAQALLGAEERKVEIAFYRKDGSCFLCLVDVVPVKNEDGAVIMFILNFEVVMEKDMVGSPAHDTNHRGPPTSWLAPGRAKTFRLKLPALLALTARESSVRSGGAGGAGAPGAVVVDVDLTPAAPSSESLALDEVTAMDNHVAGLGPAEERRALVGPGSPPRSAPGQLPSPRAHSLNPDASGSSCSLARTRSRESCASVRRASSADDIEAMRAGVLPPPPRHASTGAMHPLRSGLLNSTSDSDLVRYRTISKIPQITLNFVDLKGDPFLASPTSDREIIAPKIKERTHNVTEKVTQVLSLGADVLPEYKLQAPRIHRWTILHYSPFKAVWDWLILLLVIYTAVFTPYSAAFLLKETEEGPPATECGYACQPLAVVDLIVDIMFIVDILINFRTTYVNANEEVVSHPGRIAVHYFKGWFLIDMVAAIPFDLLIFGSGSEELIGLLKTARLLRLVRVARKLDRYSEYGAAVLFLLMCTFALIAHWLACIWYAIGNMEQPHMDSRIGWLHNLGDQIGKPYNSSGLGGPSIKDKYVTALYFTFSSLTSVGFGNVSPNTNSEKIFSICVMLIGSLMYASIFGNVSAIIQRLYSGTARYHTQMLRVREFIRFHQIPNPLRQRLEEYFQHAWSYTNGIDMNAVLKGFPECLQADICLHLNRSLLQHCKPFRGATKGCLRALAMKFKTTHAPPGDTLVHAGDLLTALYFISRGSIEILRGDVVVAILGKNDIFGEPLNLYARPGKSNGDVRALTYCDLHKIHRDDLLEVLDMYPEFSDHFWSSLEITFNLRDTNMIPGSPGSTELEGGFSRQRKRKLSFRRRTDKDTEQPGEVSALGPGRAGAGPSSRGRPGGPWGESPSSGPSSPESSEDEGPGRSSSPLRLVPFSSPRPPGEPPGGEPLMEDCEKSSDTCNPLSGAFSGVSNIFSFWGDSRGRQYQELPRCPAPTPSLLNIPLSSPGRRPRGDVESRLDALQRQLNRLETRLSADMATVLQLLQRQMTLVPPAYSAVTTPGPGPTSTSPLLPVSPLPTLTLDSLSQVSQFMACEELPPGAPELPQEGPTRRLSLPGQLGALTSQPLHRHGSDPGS
# From the text: For the purpose of assessing risk of an electrocardiogram QT interval prolongation of the compound of the present invention, effects of the compound of the present invention on delayed rectifier K+ current (IKr), which plays an important role in the ventricular repolarization process, was studied using CHO cells expressing human ether-a-go-go related gene (hERG) channel.
# After a cell was retained at a membrane potential of −80 mV by whole cell patch clamp method using an automated patch clamp system (QPatch; Sophion Bioscience A/S) and gave a leak potential of −50 mV, IKr induced by depolarization pulse stimulation at +20 mV for 2 seconds, and further, repolarization pulse stimulation at −50 mV for 2 seconds, was recorded. A vehicle, which is the 0.1-0.3% dimethyle sulfoxide solution in extracellular solution (NaCl: 145 mmol/L, KCl: 4 mmol/L, CaCl2: 2 mmol/L, MgCl2: 1 mmol/L, glucose: 10 mmol/L, HEPES (4-(2-hydroxyethyl)-1-piperazineethanesulfonic acid): 10 mmol/L, pH7.4), or the compound of the present invention had been dissolved at an objective concentration in the extracellular solution is applied to the cell at room temperature for 7 minutes or more. From the recording IKr, an absolute value of the tail peak current was measured based on the current value at the resting membrane potential using analysis software (QPatch assay software; Sophion Bioscience A/S). Further, the % inhibition of tail peak current for the compound of the present invention relative to the tail peak current after application of the vehicle is calculated to assess influence of the compound of the present invention on IKr.
# CYP3A4 = target: T3, CYP3A4 (Homo sapiens, UniProt P08684); test: CYP3A4 (MDZ) MBI test; assay type: in vitro ADME; details: pooled human liver microsomes, midazolam 1-hydroxylation, preincubation 0 vs 30 min
# T3 construct: from tissue; host or cells: pooled human liver microsomes
# T3 sequence (P08684 whole entry): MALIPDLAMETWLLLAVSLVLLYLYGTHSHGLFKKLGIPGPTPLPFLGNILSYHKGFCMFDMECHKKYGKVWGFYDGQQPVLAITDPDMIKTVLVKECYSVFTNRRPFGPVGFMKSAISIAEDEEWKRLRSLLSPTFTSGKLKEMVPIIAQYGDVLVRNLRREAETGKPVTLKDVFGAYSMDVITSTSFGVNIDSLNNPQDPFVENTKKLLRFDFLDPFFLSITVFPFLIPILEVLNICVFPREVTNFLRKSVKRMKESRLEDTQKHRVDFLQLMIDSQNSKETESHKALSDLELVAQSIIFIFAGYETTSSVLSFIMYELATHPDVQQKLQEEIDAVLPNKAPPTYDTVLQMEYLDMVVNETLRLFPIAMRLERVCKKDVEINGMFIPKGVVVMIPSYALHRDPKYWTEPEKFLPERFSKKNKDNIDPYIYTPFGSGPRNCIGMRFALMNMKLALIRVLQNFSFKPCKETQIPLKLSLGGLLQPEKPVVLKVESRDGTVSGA
# Procedure: CYP3A4 (MDZ) MBI test is a test of investigating mechanism based inhibition potential on CYP3A4 by the enhancement of inhibitory degree of a metabolic reaction caused by the compound of the present invention. CYP3A4 inhibition was evaluated using pooled human liver microsomes by 1-hydroxylation reaction of midazolam (MDZ) as a marker reaction.
# The reaction conditions are as follows: substrate, 10 μmol/L MDZ; pre-reaction time, 0 or 30 minutes; substrate reaction time, 2 minutes; reaction temperature, 37° C.; protein content of pooled human liver microsomes, at pre-reaction time 0.5 mg/mL, at reaction time […] (at 10-fold dilution); concentrations of the compound of the present invention, 1, 5, 10, 20 μmol/L (four points).
# Pooled human liver microsomes and a solution of the compound of the present invention in K-Pi buffer (pH 7.4) as a pre-reaction solution were added to a 96-well plate at the composition of the pre-reaction. A part of pre-reaction solution was transferred to another 96-well plate, and 1/10 diluted by K-Pi buffer containing a substrate. NADPH as a co-factor was added to initiate a reaction as a marker reaction (preincubation 0 min). After a predetermined time of a reaction, methanol/acetonitrile=l/1 (v/v) solution was added to stop the reaction. In addition, NADPH was added to a remaining pre-reaction solution to initiate a pre-reaction (preincubation 30 min). After a predetermined time of a pre-reaction, a part was transferred to another 96-well plate, and 1/10 diluted by K-Pi buffer containing a substrate to initiate a reaction as a marker reaction. After a predetermined time of a reaction, methanol/acetonitrile=1/1 (v/v) solution was added to stop the reaction. After centrifuged at 3000 rpm for 15 minutes, 1-hydroxymidazolam in the supernatant was quantified by LC/MS/MS.
# The sample adding DMSO as a solvent to a reaction system instead of a solution dissolving the compound of the present invention was adopted as a control (100%). Remaining activity (%) was calculated at each concentration of the compound of the present invention compared to a control, and IC value was calculated by reverse-presumption by a logistic model using a concentration and an inhibition rate. Shifted IC value was calculated as “IC of preincubation at 0 min/IC of preincubation at 30 min”. When a shifted IC is 1.5 or more, this is defined as positive. When a shifted IC is 1.0 or less, this is defined as negative.
# T1 sequence (P04629 33-796): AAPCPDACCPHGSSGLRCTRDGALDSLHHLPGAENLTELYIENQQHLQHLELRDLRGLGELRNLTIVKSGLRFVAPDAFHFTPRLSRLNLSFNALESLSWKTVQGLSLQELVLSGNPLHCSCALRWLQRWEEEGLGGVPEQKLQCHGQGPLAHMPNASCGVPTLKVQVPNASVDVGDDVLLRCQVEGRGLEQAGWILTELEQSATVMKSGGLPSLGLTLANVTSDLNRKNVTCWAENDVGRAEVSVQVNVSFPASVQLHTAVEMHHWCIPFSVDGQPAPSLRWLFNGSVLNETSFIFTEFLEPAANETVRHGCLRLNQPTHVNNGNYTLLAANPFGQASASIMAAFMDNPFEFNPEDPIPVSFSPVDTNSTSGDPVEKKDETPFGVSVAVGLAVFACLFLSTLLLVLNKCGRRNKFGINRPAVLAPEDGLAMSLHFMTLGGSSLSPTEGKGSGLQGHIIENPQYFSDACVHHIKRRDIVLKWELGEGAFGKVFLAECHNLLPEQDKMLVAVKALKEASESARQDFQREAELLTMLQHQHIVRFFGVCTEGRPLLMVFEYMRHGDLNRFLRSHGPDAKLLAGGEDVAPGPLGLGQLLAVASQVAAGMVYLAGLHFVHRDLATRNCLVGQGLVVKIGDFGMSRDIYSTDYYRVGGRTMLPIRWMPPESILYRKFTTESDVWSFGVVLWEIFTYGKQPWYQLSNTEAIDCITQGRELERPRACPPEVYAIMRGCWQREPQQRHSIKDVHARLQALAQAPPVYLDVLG
compound,measurement,setting,value
CCN1CCC(NC(=O)c2cc(-c3nn(-c4ccccc4)c(NC(=O)N[C@@H]4C[C@@H](CCOC)C[C@H]4c4ccccc4)c3C)ccn2)CC1 [Compound I-67],IC50,human TrkA; read-out: IC50_nM,< 100 nM
same,inhibition at 5 μmol/L,hERG channel (IKr),16.3%
COCCN1C[C@@H](NC(=O)Nc2c(C)c(-c3cnn(C)c3)nn2-c2ccccc2)[C@H](c2cnc(F)c(F)c2)C1 (racemic) [Compound I-5],IC50,human TrkA; read-out: IC50_nM,< 100 nM
same,inhibition at 30 μmol/L,hERG channel (IKr),35.3%
same,mechanism based inhibition of CYP3A4 (shifted IC),CYP3A4,"Negative (When a shifted IC is 1.0 or less, this is defined as negative)"
COCC[C@@H]1C[C@@H](NC(=O)Nc2c(C)c(-c3cnc(C)nc3)nn2-c2ccccc2)[C@H](c2ccnc(F)c2)N1C [Compound I-173],IC50,human TrkA; read-out: IC50 value,0.92 nM
same,mechanism based inhibition of CYP3A4 (shifted IC),CYP3A4,"Negative (When a shifted IC is 1.0 or less, this is defined as negative)"
CCOc1ncc(-c2nn(-c3ccccc3)c(NC(=O)N[C@@H]3C[C@@H](CCOC)C[C@H]3c3ccc(F)c(F)c3)c2C)cn1 [Compound I-169],IC50,human TrkA; read-out: IC50_nM,< 100 nM
same,inhibition at 10 μmol/L,hERG channel (IKr),21%
CCN1CCC(NC(=O)c2cc(-c3nn(-c4ccccc4)c(NC(=O)N[C@@H]4C[C@@H](CCOC)N(C)[C@H]4c4ccc(F)c(F)c4)c3C)ccn2)CC1 [Compound I-66],IC50,human TrkA; read-out: IC50_nM,< 100 nM
same,inhibition at 5 μmol/L,hERG channel (IKr),22.6%
CCOc1ncc(-c2nn(-c3ccccc3)c(NC(=O)N[C@@H]3C[C@@H](CCOC)N(C)[C@H]3c3ccc(F)c(F)c3)c2C)cn1 [Compound I-174],IC50,human TrkA; read-out: IC50_nM,< 100 nM
same,inhibition at 10 μmol/L,hERG channel (IKr),33.6%
COCC[C@@H]1C[C@@H](NC(=O)Nc2c(C)c(-c3cnc(OC)nc3)nn2-c2ccccc2)[C@H](c2ccnc(F)c2)N1C [Compound I-92],IC50,human TrkA; read-out: IC50 value,0.74 nM
same,inhibition at 30 μmol/L,hERG channel (IKr),19.3%
CCOc1ncc(-c2nn(-c3ccccc3)c(NC(=O)N[C@@H]3C[C@@H](CCOC)N(C)[C@H]3c3ccnc(F)c3)c2C)cn1 [Compound I-93],IC50,human TrkA; read-out: IC50_nM,< 100 nM
same,inhibition at 5 μmol/L,hERG channel (IKr),11.6%
COCCN1C[C@@H](NC(=O)Nc2c(C)c(-c3cnc(CO)nc3)nn2-c2ccccc2)[C@H](c2ccccc2)C1 (racemic) [Compound I-10],IC50,human TrkA; read-out: IC50_nM,< 100 nM
same,inhibition at 5 μmol/L,hERG channel (IKr),34.6%
COCC[C@@H]1C[C@@H](NC(=O)Nc2c(C)c(-c3cnc(C)nc3)nn2-c2ccccc2)[C@H](c2ccnc(F)c2)C1 [Compound I-164],IC50,human TrkA; read-out: IC50 value,1.8 nM
same,mechanism based inhibition of CYP3A4 (shifted IC),CYP3A4,"Negative (When a shifted IC is 1.0 or less, this is defined as negative)"
COCC[C@@H]1C[C@@H](NC(=O)Nc2c(C)c(-c3cnn(C)c3)nn2-c2ccccc2)[C@H](c2ccnc(F)c2)N1C [Compound I-68],IC50,human TrkA; read-out: IC50_nM,< 100 nM
same,inhibition at 30 μmol/L,hERG channel (IKr),12.8%
same,mechanism based inhibition of CYP3A4 (shifted IC),CYP3A4,"Negative (When a shifted IC is 1.0 or less, this is defined as negative)"
COCCN1C[C@@H](NC(=O)Nc2c(C)c(-c3ccnc(C(=O)NC4CCCCC4)c3)nn2-c2ccccc2)[C@H](c2ccccc2)C1 (racemic) [Compound I-71],IC50,human TrkA; read-out: IC50_nM,< 100 nM
COCC[C@@H]1C[C@@H](NC(=O)Nc2c(C)c(-c3cnc(N4CC(O)C4)nc3)nn2-c2ccccc2)[C@H](c2ccnc(F)c2)C1 [Compound I-166],IC50,human TrkA; read-out: IC50_nM,< 100 nM
COCC[C@@H]1C[C@@H](NC(=O)Nc2c(C)c(-c3ccc(N=S(C)(C)=O)nc3)nn2-c2ccccc2)[C@H](c2ccccc2)C1 [Compound I-152],IC50,human TrkA; read-out: IC50_nM,< 100 nM
COCCN1C[C@@H](NC(=O)Nc2c(C)c(-c3cnc4c(c3)oc(=O)n4C)nn2-c2ccccc2)[C@H](c2ccccc2)C1 (racemic) [Compound I-76],IC50,human TrkA; read-out: IC50 value,3.1 nM
COCCN1C[C@@H](NC(=O)Nc2c(C)c(-c3cnc4c(c3)nnn4C)nn2-c2ccccc2)[C@H](c2ccccc2)C1 (racemic) [Compound I-37],IC50,human TrkA; read-out: IC50_nM,< 100 nM

# Source: patent US10533006B2, “Nitrogen-containing heterocycle and carbocycle derivatives having TrkA inhibitory activity” (Shionogi & Co., Ltd., priority 2016, dated 2020)
